Source: ChEMBL document CHEMBL4765227, “Hit to lead optimization of a series of N-[4-(1,3-benzothiazol-2-yl)phenyl]acetamides as monoacylglycerol lipase inhibitors with potential anticancer activity” (Eur J Med Chem, 2016)

Experiments:
Assay type in all cases: functional
Settings in all cases: read-out: GI
[1] = test system: CCRF-CEM; assay: Growth inhibition of human CCRF-CEM cells at 10 uM incubated for 48 hrs by sulforhodamine B assay relative to control
[2] = test system: TK-10; assay: Growth inhibition of human TK-10 cells at 10 uM incubated for 48 hrs by sulforhodamine B assay relative to control
[3] = test system: IGROV-1; assay: Growth inhibition of human IGROV-1 cells at 10 uM incubated for 48 hrs by sulforhodamine B assay relative to control
[4] = test system: 786-0; assay: Growth inhibition of human 786-0 cells at 10 uM incubated for 48 hrs by sulforhodamine B assay relative to control
[5] = test system: COLO 205; assay: Growth inhibition of human COLO 205 cells at 10 uM incubated for 48 hrs by sulforhodamine B assay relative to control
[6] = test system: MDA-MB-468; assay: Growth inhibition of human MDA-MB-468 cells at 10 uM incubated for 48 hrs by sulforhodamine B assay relative to control
[7] = test system: SK-MEL-5; assay: Growth inhibition of human SK-MEL-5 cells at 10 uM incubated for 48 hrs by sulforhodamine B assay relative to control
[8] = test system: A549; assay: Growth inhibition of human A549/ATCC cells at 10 uM incubated for 48 hrs by sulforhodamine B assay relative to control
[9] = test system: SF-268; assay: Growth inhibition of human SF-268 cells at 10 uM incubated for 48 hrs by sulforhodamine B assay relative to control
[10] = test system: NCI/ADR-RES; assay: Growth inhibition of human NCI/ADR-RES cells at 10 uM incubated for 48 hrs by sulforhodamine B assay relative to control
[11] = test system: M14; assay: Growth inhibition of human M14 cells at 10 uM incubated for 48 hrs by sulforhodamine B assay relative to control
[12] = test system: Malme-3M; assay: Growth inhibition of human Malme-3M cells at 10 uM incubated for 48 hrs by sulforhodamine B assay relative to control
[13] = test system: SNB-75; assay: Growth inhibition of human SNB-75 cells at 10 uM incubated for 48 hrs by sulforhodamine B assay relative to control
[14] = test system: ACHN; assay: Growth inhibition of human ACHN cells at 10 uM incubated for 48 hrs by sulforhodamine B assay relative to control
[15] = test system: UACC-257; assay: Growth inhibition of human UACC-257 cells at 10 uM incubated for 48 hrs by sulforhodamine B assay relative to control
[16] = test system: DU-145; assay: Growth inhibition of human DU-145 cells at 10 uM incubated for 48 hrs by sulforhodamine B assay relative to control
[17] = test system: HCC 2998; assay: Growth inhibition of human HCC 2998 cells at 10 uM incubated for 48 hrs by sulforhodamine B assay relative to control
[18] = test system: OVCAR-3; assay: Growth inhibition of human OVCAR-3 cells at 10 uM incubated for 48 hrs by sulforhodamine B assay relative to control
[19] = test system: SK-OV-3; assay: Growth inhibition of human SK-OV-3 cells at 10 uM incubated for 48 hrs by sulforhodamine B assay relative to control
[20] = test system: SK-MEL-28; assay: Growth inhibition of human SK-MEL-28 cells at 10 uM incubated for 48 hrs by sulforhodamine B assay relative to control
[21] = test system: OVCAR-4; assay: Growth inhibition of human OVCAR-4 cells at 10 uM incubated for 48 hrs by sulforhodamine B assay relative to control
[22] = test system: SR; assay: Growth inhibition of human SR cells at 10 uM incubated for 48 hrs by sulforhodamine B assay relative to control
[23] = test system: SNB-19; assay: Growth inhibition of human SNB-19 cells at 10 uM incubated for 48 hrs by sulforhodamine B assay relative to control
[24] = test system: RXF 393; assay: Growth inhibition of human RXF 393 cells at 10 uM incubated for 48 hrs by sulforhodamine B assay relative to control
[25] = test system: U-251; assay: Growth inhibition of human U-251 cells at 10 uM incubated for 48 hrs by sulforhodamine B assay relative to control
[26] = test system: OVCAR-5; assay: Growth inhibition of human OVCAR-5 cells at 10 uM incubated for 48 hrs by sulforhodamine B assay relative to control
[27] = test system: HT-29; assay: Growth inhibition of human HT-29 cells at 10 uM incubated for 48 hrs by sulforhodamine B assay relative to control
[28] = test system: BT-549; assay: Growth inhibition of human BT-549 cells at 10 uM incubated for 48 hrs by sulforhodamine B assay relative to control
[29] = test system: HCT-15; assay: Growth inhibition of human HCT-15 cells at 10 uM incubated for 48 hrs by sulforhodamine B assay relative to control
[30] = test system: MCF7; assay: Growth inhibition of human MCF7 cells at 10 uM incubated for 48 hrs by sulforhodamine B assay relative to control
[31] = test system: HCT-116; assay: Growth inhibition of human HCT-116 cells at 10 uM incubated for 48 hrs by sulforhodamine B assay relative to control
[32] = test system: RPMI-8226; assay: Growth inhibition of human RPMI-8226 cells at 10 uM incubated for 48 hrs by sulforhodamine B assay relative to control
[33] = test system: UACC-62; assay: Growth inhibition of human UACC-62 cells at 10 uM incubated for 48 hrs by sulforhodamine B assay relative to control
[34] = test system: PC-3; assay: Growth inhibition of human PC-3 cells at 10 uM incubated for 48 hrs by sulforhodamine B assay relative to control
[35] = test system: MOLT-4; assay: Growth inhibition of human MOLT-4 cells at 10 uM incubated for 48 hrs by sulforhodamine B assay relative to control
[36] = test system: Hs-578T; assay: Growth inhibition of human Hs-578T cells at 10 uM incubated for 48 hrs by sulforhodamine B assay relative to control
[37] = test system: NCI-H226; assay: Growth inhibition of human NCI-H226 cells at 10 uM incubated for 48 hrs by sulforhodamine B assay relative to control
[38] = test system: SF-295; assay: Growth inhibition of human SF-295 cells at 10 uM incubated for 48 hrs by sulforhodamine B assay relative to control
[39] = test system: HOP-62; assay: Growth inhibition of human HOP-62 cells at 10 uM incubated for 48 hrs by sulforhodamine B assay relative to control
[40] = test system: CAKI-1; assay: Growth inhibition of human CAKI-1 cells at 10 uM incubated for 48 hrs by sulforhodamine B assay relative to control
[41] = test system: T47D; assay: Growth inhibition of human T47D cells at 10 uM incubated for 48 hrs by sulforhodamine B assay relative to control
[42] = test system: LOX IMVI; assay: Growth inhibition of human LOX IMVI cells at 10 uM incubated for 48 hrs by sulforhodamine B assay relative to control
[43] = test system: HL-60(TB); assay: Growth inhibition of human HL-60(TB) cells at 10 uM incubated for 48 hrs by sulforhodamine B assay relative to control
[44] = test system: HOP-92; assay: Growth inhibition of human HOP-92 cells at 10 uM incubated for 48 hrs by sulforhodamine B assay relative to control

Q: Which inhibition of growth at 10 µM [1] does the source give for `O=C(CN(c1ccccc1)c1ccccc1)Nc1ccc(-c2nc3ccccc3s2)cc1` here?
A: -6.75%

Q: What about the inhibition of growth at 10 µM [2] of the same compound?
A: -2.02%

Q: What about the inhibition of growth at 10 µM [3] of the same compound?
A: 4.71%

Q: And the inhibition of growth at 10 µM [4]?
A: -1.87%

Q: And the inhibition of growth at 10 µM [5]?
A: -3.6%

Q: What about the inhibition of growth at 10 µM [6] of the same compound?
A: 61.3%

Q: And the inhibition of growth at 10 µM [7]?
A: 7.11%

Q: What about the inhibition of growth at 10 µM [8] of the same compound?
A: -5.7%

Q: And the inhibition of growth at 10 µM [9]?
A: -3.74%

Q: And the inhibition of growth at 10 µM [10]?
A: -9.25%

Q: And the inhibition of growth at 10 µM [11]?
A: -10.1%

Q: And the inhibition of growth at 10 µM [12]?
A: -3.98%

Q: What about the inhibition of growth at 10 µM [13] of the same compound?
A: 2.08%

Q: And the inhibition of growth at 10 µM [14]?
A: -13.4%

Q: And the inhibition of growth at 10 µM [15]?
A: -8.16%

Q: What about the inhibition of growth at 10 µM [16] of the same compound?
A: -5.31%

Q: What about the inhibition of growth at 10 µM [17] of the same compound?
A: -1.62%

Q: What about the inhibition of growth at 10 µM [18] of the same compound?
A: -4.14%

Q: And the inhibition of growth at 10 µM [19]?
A: -11.4%

Q: And the inhibition of growth at 10 µM [20]?
A: -10.5%

Q: And the inhibition of growth at 10 µM [21]?
A: -13.3%

Q: What about the inhibition of growth at 10 µM [22] of the same compound?
A: 2.68%

Q: What about the inhibition of growth at 10 µM [23] of the same compound?
A: -7.16%

Q: And the inhibition of growth at 10 µM [24]?
A: -5.12%

Q: And the inhibition of growth at 10 µM [25]?
A: -5.92%

Q: And the inhibition of growth at 10 µM [26]?
A: -6.47%

Q: And the inhibition of growth at 10 µM [27]?
A: -5.89%

Q: What about the inhibition of growth at 10 µM [28] of the same compound?
A: -12.2%

Q: And the inhibition of growth at 10 µM [29]?
A: -8.11%

Q: And the inhibition of growth at 10 µM [30]?
A: 52%

Q: What about the inhibition of growth at 10 µM [31] of the same compound?
A: -5.38%

Q: What about the inhibition of growth at 10 µM [32] of the same compound?
A: -15.6%

Q: And the inhibition of growth at 10 µM [33]?
A: 2.85%

Q: What about the inhibition of growth at 10 µM [34] of the same compound?
A: 2.35%

Q: What about the inhibition of growth at 10 µM [35] of the same compound?
A: -4.25%

Q: What about the inhibition of growth at 10 µM [36] of the same compound?
A: 14.3%

Q: And the inhibition of growth at 10 µM [37]?
A: -5.48%

Q: And the inhibition of growth at 10 µM [38]?
A: -3.15%

Q: What about the inhibition of growth at 10 µM [39] of the same compound?
A: -5.28%

Q: And the inhibition of growth at 10 µM [40]?
A: 0.37%

Q: And the inhibition of growth at 10 µM [41]?
A: 13.6%

Q: And the inhibition of growth at 10 µM [42]?
A: 6.1%

Q: And the inhibition of growth at 10 µM [43]?
A: -1.45%

Q: What about the inhibition of growth at 10 µM [44] of the same compound?
A: 11.2%
